# Experimental data taken from US20230250077A1, “SULFONYLBENZAMIDE DERIVATIVE AND CONJUGATE THEREOF, PREPARATION METHOD THEREFOR AND USE THEREOF” (Jiangsu Hengrui Pharmaceuticals Co., Ltd., priority 2020, published 2023).
# Marks after values point to notes of the source that are not given here.
# Assays:
# [1] = test system: SD rats; assay: Toxicity test on SD rats by repeated intravenous administrations for 7 days; assay type: in vivo, rat; details: 1 mg/kg intravenously qd
# Protocol: This experiment was performed to evaluate the toxicity of compound 9 and AZD4320 to SD rats by repeated intravenous administrations for 7 days.
# 30 SD rats, weighing about 180-200 g and aged 6-7 weeks, half male and half female, purchased from Zhejiang Vital River Laboratory Animal Technology Co., Ltd., SPF grade. Animal certification number: 200917Aazz0619000298 and 20200917Aazz0619000104. Production license number: SCXK (Zhejiang) 2019-0001.
# Housing conditions: SPF grade, animals were housed in plastic and transparent rat cages, 2-3 per cage. The room temperature was 20-26° C. and the relative humidity was 40%-70%. The illumination was controlled in a 12/12 light/dark cycle. The granulated feed for mice was freely taken in an unlimited amount.
# The rats were randomly divided into the following 3 groups: a vehicle control group, a compound 9-1 mg/kg group and a compound AZD4320-1 mg/kg group, with 6 rats in each group, half male and half female.
# Dosage of the test sample for the 7-day toxicity test in rats: 1 mg/kg (qd), for 7 consecutive days. Administration route: intravenously, dosing volume: 10 mL/kg, dosing frequency and dosing period: daily in the morning for 7 days.
# Vehicle: 1.5% DMA+98.5% (10% HS-15), wherein DMA is N,N-dimethylacetamide (Shanghai Titan Scientific Co., Ltd., Cat #01013630); and HS-15 is polyethylene glycol stearate 15 (Solutol HS15) (Shanghai Xietai Chemical Co., Ltd., Cat #50253404).
# Hitachi 7100 automatic biochemical analyzer
# Siemens advia 2120i automatic blood cell analyzer
# Sysmex ca1500 automatic coagulation analyzer
# The detection results were input and statistically processed by Excel of the computer.
# Clinical symptoms, food intake and general visual observation results of dissection were not statistically calculated, and indexes such as body weight, organ weight and clinical examination were counted by using T-test.
# SD rats were intravenously administered with 1 mg/kg compound 9 or 1 mg/kg AZD4320 at 5 mL/kg for 7 repeated days.
# [2] = Pharmacokinetic evaluation in mice (iv, LC/MS/MS plasma); assay type: in vivo; details: C57 mice, female, intravenous administration, dose 1 mg/kg (table)
# Protocol: The drug concentration in the plasma of the test animals (mice) at different time points after intravenous (iv) administration of compound 10 and AZD4320 was determined by an LC/MS/MS method. The pharmacokinetic behavior of the compounds of the present disclosure in mice was studied and their pharmacokinetic profile was valuated.
# 18 C57 mice, female, randomly divided into 2 groups, purchased from Zhejiang Vital River Laboratory Animal Technology Co., Ltd, animal production license number: SCXK (Shanghai) 2017-0005.
# A certain amount of compound 10 was weighed, dissolved by adding 5% by volume of DMSO and 5% Tween 80 (Shanghai Titan Scientific Co., Ltd.), and then prepared into a 0.1 mg/mL clear solution by adding 90% normal saline. Compound AZD4320 was formulated as with compound 10. […]
# (§1) The mice were intravenously administered with compound 10, and 0.1 mL of blood was collected before the administration and 5 min, 0.25 h, 0.5 h, 1.0 h, 2.0 h, 4.0 h, 8.0 h, 11.0 h and 24.0 h after the administration, put into an EDTA-K2 anticoagulation tube, centrifuged at 10,000 rpm for 1 min (4° C.). Plasma was separated within 1 hour, and stored at −20° C. for testing. The process from blood collection to centrifugation was performed under an ice bath.
# as §1, with “compound AZD4320,” for “compound 10,”
# The content of the test compounds at different concentrations in plasma of mice after the administration was determined: 10 μL of plasma of mice at each time point after the administration was mixed with 200 μL of methanol (containing an internal standard solution camptothecin (100 ng/mL)); the mixture was vortexed for 1 min, and centrifuged for 10 min (18,000 r/min), and 3 μL of supernatant was taken for LC/MS/MS analysis.
# [3] = target: T1, BCL-xL (Homo sapiens, UniProt Q07817); assay: Binding activity for BCL-xL (HTRF, biotin-labeled BIM); details: His-tagged BCL-xL
# T1 construct: purchased R&D 894-BX-050
# T1 sequence (Q07817 whole entry): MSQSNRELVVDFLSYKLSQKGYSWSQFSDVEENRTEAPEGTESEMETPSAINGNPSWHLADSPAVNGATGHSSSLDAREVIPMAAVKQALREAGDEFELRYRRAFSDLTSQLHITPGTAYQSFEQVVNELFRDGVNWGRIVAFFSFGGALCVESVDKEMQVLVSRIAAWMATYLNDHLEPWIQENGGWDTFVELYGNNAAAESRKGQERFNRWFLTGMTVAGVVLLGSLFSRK
# Protocol: In vitro BCL-xL-binding activity was tested by the following method.
# Reagents used in this experiment: His-tagged BCL-xL protein (R&D, Cat #894-BX-050); biotin-labeled BIM protein (R&D, Cat #3526/1); binding buffer (cisbio, Cat #62DLBDDF); assay buffer (cisbio, Cat #62DB1FDG); MAb anti-6His-Eu cryptate (cisbio, Cat #61HI2KLA); and affinity streptomycin linked XL665 (cisbio, Cat #611SAXLA).
# The in vitro binding assay described below can determine the binding activity of test compounds for BCL-xL.
# The test compounds were dissolved in dimethyl sulfoxide and diluted to gradient concentrations as required for the experiment, and the compounds at various concentrations formulated in dimethyl sulfoxide were subjected to a 100-fold dilution with a binding buffer. BCL-xL was diluted to the corresponding concentration with a binding buffer, and added to a white 384-well plate at 4 μL/well. Then the diluted test compound was added to the white 384-well plate at 2 μL/well. The plate was incubated at 25° C. for 1 h after the mixture was uniformly mixed. Biotin-labeled BIM protein was diluted to the corresponding concentration with a binding buffer, and added to a white 384-well plate at 4 μL/well. The plate was incubated at 25° C. for 2 h after the mixture was uniformly mixed. The MAb anti-6His-Eu cryptate and the affinity streptomycin linked XL665 were each diluted to the corresponding concentration with an assay buffer, and added to a white 384-well plate at 5 μL/well. The plate was incubated at 25° C. for 2-4 h after the mixture was uniformly mixed. The signal values were read with the HTRF program in a microplate reader (BMG Labtech, model: PHERAstar FS).
# [4] = target: T2, BCL-2 (Homo sapiens, UniProt P10415); assay: Binding activity for BCL-2 (HTRF, biotin-labeled BIM); details: His-tagged BCL-2, biotin-labeled BIM
# T2 construct: purchased R&D systems 827-BC-050
# T2 sequence (P10415 whole entry): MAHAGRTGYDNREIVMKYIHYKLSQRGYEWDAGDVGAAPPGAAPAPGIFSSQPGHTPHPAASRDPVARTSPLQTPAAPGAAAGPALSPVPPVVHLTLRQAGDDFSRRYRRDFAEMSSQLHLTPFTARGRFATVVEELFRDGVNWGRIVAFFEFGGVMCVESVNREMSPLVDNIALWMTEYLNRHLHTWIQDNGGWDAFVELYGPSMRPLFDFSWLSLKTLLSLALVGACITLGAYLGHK
# Protocol: In vitro BCL-2-binding activity was tested by the following method.
# Reagents used in this experiment: His-tagged BCL-2 protein (R&D systems, Cat #827-BC-050); biotin-labeled BIM protein (R&D, Cat #3526/1); binding buffer (cisbio, Cat #62DLBDDF); assay buffer (cisbio, Cat #62DB1FDG); MAb anti-6His-Eu cryptate (cisbio, Cat #61HI2KLA); and affinity streptomycin linked XL665 (cisbio, Cat #611SAXLA).
# The in vitro binding assay described below can determine the binding activity of test compounds for BCL-2.
# The test compounds were dissolved in dimethyl sulfoxide and diluted to gradient concentrations as required for the experiment, and the compounds at various concentrations formulated in dimethyl sulfoxide were subjected to a 100-fold dilution with a binding buffer. BCL-2 was diluted to the corresponding concentration with a binding buffer solution, and added to a white 384-well plate at 4 μL/well. Then the diluted test compound was added into the white 384-well plate at 2 μL/well. The plate was incubated at 25° C. for 1 h after the mixture was uniformly mixed. Biotin-labeled BIM protein was diluted to the corresponding concentration with a binding buffer, and added to a white 384-well plate at 4 μL/well. The plate was incubated at 25° C. for 2 h after the mixture was uniformly mixed. The MAb anti-6His-Eu cryptate and the affinity streptomycin linked XL665 were each diluted to the corresponding concentration with an assay buffer, and added to a white 384-well plate at 5 μL/well. The plate was incubated at 25° C. for 2-4 h after the mixture was uniformly mixed. The signal values were read with the HTRF program in a microplate reader (BMG Labtech, model: PHERAstar FS).
# [5] = test system: RS4;11 cells; assay: Inhibition of proliferation of RS4;11 cells (CellTiter-Glo); assay type: cell-based; details: Homo sapiens, 72 h, 3 days, read-out: Inhibitory activity IC50 (nM) for the proliferation of RS4;11 cells
# Protocol: (§2) In vitro inhibitory activity for the proliferation of RS4;11 cells and NCI-H146 cells was tested by the following method.
# (§3) Reagents used in this experiment: RPMI-1640 medium (HyCLone, Cat #SH30243018); fetal bovine serum (Gibco, Cat #10099-141); pancreatin (Gibco, Cat #25200-072); Cell Titer-Glo (Promega, Cat #G7571).
# (§4) Materials used: RS4;11 cells (Nanjing Kebai Biotechnology Co., Ltd, Cat #CBP60641); and NCI-H146 cells (ATCC, Cat #HTB-173).
# (§5) The in vitro cell proliferation assay described below can determine the inhibitory activity of the test compounds for the proliferation of RS4;11 cells and NCI-H146 cells.
# (§6) RS4;11 cells (or NCI-H146 cells) were cultured in an RPMI-1640 culture medium containing 10% FBS, and were passaged for 2-3 times a week in a passage ratio of 1:3 or 1:5. During passage, the cells were transferred to a centrifuge tube, and centrifuged at 1200 rpm for 3 min. The supernatant was discarded, and fresh culture medium was added to resuspend the cells. 90 μL of cell suspension was added to a 96-well cell culture plate, wherein RS4;11 cells and NCI-H146 cells were added at a density of 2.22×10^5 cells/mL. Only 100 μL of complete medium (RPMI-1640 medium containing 10% FBS) was added to the periphery of the 96-well plate. The plate was incubated in an incubator for 24 h (37° C., 5% CO2).
# (§7) The test sample was diluted to a proper concentration gradient with dimethyl sulfoxide as required for the experiment. 5 μL of the solution of the test compound prepared in a gradient concentration was added to 95 μL of fresh culture medium and mixed uniformly, and then 10 μL of the culture medium containing the above compound was added to a cell culture plate. The cell culture plate was incubated in an incubator for 3 days (37° C., 5% CO2). 50 μL of CellTiter-Glo reagent was added into each well of the 96-well cell culture plate. The plate was let stand for 5-10 min away from the light at room temperature. The chemiluminescence signals were read by a microplate reader (BMG Labtech, model: PHERAstar FS) and the data were processed by GraphPad software.
# [6] = test system: NCI-H146 cells; assay: Inhibition of proliferation of NCI-H146 cells (CellTiter-Glo); assay type: cell-based; details: Homo sapiens, 72 h, 3 days, read-out: Inhibitory activity IC50 (nM) for the proliferation of NCI-H146 cells
# Protocol: as §2, §3, §4, §5, §6, §7
Clearance CLz/F [2],"AUC(0-t) ([2]; mouse, plasma, read-out: Area under curve AUC0-t)","half-life ([2]; mouse, plasma, read-out: Half-life T½ (converted))","MRT inf ([2]; mouse, plasma, read-out: Mean retention time MRT 0-∞)","concentration at 5 min ([2]; mouse, plasma, read-out: Plasma Concentration C5 min)",Ki [3],Ki [4],IC50 [5],IC50 [6],Structure (SMILES),PLT (10^9/L) [1],Effect on platelets (in words) ([1]; vs vehicle control)
72.7 mL/min/kg,206 ng·h/mL,3.1 h,2.4 h,436 ng/mL,,,,,"CN(CCO)CC[C@H](CSc1ccccc1)Nc1ccc(S(=O)(=O)NC(=O)c2ccc(N3CCC([C@@H](O)c4ccccc4-c4ccc(Cl)cc4)CC3)cc2)cc1S(=O)(=O)C(F)(F)F [AZD4320, reference compound]",807.50** 10^9/L,more significantly reduced
,,,,,0.3 nM,0.04 nM,7 nM,35 nM,"O=C(NS(=O)(=O)c1ccc(N[C@@H](CSc2ccccc2)C[C@@H]2CCCN2CCO)c(S(=O)(=O)C(F)(F)F)c1)c1ccc(N2CCC([C@@H](O)c3ccccc3-c3ccc(C(F)(F)F)cc3)CC2)cc1 [Example 2-13, 4-(4-((R)-hydroxy(4′-(trifluoromethyl)-[1,1′-biphenyl]-2-yl)methyl)piperidin-1-yl)-N-((4-(((R)-1-((S)-1-(2-hydroxyethyl)pyrrolidin-2-yl)-3-(phenylthio)propan-2-yl)amino)-3-((trifluoromethyl)sulfonyl)phenyl)sulfonyl)benzamide]",,
